# Laboratory results taken from PMC9936527, “Tandemly duplicated CYP82Ds catalyze 14-hydroxylation in triptolide biosynthesis and precursor production in Saccharomyces cerevisiae” (Nature Communications, 2023).
# Assays:
# Type in all cases: biochemical, Tripterygium wilfordii
# Conditions in all cases: NADPH with regenerating system, TwPOR3, Tris-HCl pH 7.5, 30 °C, 30 min; 14-hydroxylation
# CYP82D274 [1] = system: T1, CYP82D274; assay: yeast microsomes, product […] by GC-MS, Michaelis-Menten fit
# T1 construct: full-length CYP cloned from root cDNA, coexpressed with TwPOR3 (pESC-LEU) in Saccharomyces cerevisiae BY4741; yeast microsomes; with NADPH--cytochrome P450 reductase
# CYP82D274 [2] = system: T1, CYP82D274; assay: yeast microsomes, product […] by LC-TQ-MS/MS, Michaelis-Menten fit
# CYP82D263 = system: T2, CYP82D263; assay: as above
# T2 construct: full-length CYP cloned from root cDNA, coexpressed with TwPOR3 (pESC-LEU) in Saccharomyces cerevisiae BY4741; yeast microsomes; with NADPH--cytochrome P450 reductase
SMILES,Km (CYP82D274 [1]) [µM],Km (CYP82D274 [2]) [µM],Km (CYP82D263) [µM]
"CC(C)C1=CCC2=C(CC[C@H]3C(C)(C)CCC[C@]23C)C1 [compound 5, miltiradiene]",47.3 ± 13,,
"CC(C)c1ccc2c(c1)CC[C@H]1[C@](C)(C(=O)O)CCC[C@]21C [compound 7, dehydroabietic acid]",,0.99 ± 0.17,8.42 ± 1.89
